Test system: LG0567-F671-PDC KRAS tumor spheroid viability
Experiment: Anticancer human tumor LG0567-F671-PDC patient-derived lung adenocarcinoma cell line growth inhibition [KRAS2]
Settings: spheroids with HUVEC and MSC; for IC50: curve of first compound; for viability, T/C: stronger effect = lower value
How it was run: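 KRAS-mutant tumor cells were grown as spheroids with HUVEC endothelial cells and human MSCs as stroma. Targeted agents were tested alone and with KRAS pathway inhibitors. Doses started at or near clinical Cmax, or 10 microM, descending half-log.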

[1] = second compound 0.1 µM, first compound 0.0316 µM
[2] = second compound 0.1 µM, first compound 0.1 µM
[3] = second compound 0.1 µM, first compound 0.316 µM
[4] = second compound 0.1 µM, first compound 1 µM
[5] = second compound 0.1 µM, first compound 3.16 µM
[6] = second compound 0.1 µM, first compound 10 µM
[7] = second compound 0.316 µM, first compound 0.0316 µM
[8] = second compound 0.316 µM, first compound 0.1 µM
[9] = second compound 0.316 µM, first compound 0.316 µM
[10] = second compound 0.316 µM, first compound 1 µM
[11] = second compound 0.316 µM, first compound 3.16 µM
[12] = second compound 0.316 µM, first compound 10 µM
[13] = second compound 1 µM, first compound 0.0316 µM
[14] = second compound 1 µM, first compound 0.1 µM
[15] = second compound 1 µM, first compound 0.316 µM
[16] = second compound 1 µM, first compound 1 µM
[17] = second compound 1 µM, first compound 3.16 µM
[18] = second compound 1 µM, first compound 10 µM
[19] = second compound 3.16 µM, first compound 0.0316 µM
[20] = second compound 3.16 µM, first compound 0.1 µM
[21] = second compound 3.16 µM, first compound 0.316 µM
[22] = second compound 3.16 µM, first compound 1 µM
[23] = second compound 3.16 µM, first compound 3.16 µM
[24] = second compound 3.16 µM, first compound 10 µM
[25] = second compound 10 µM, first compound 0.0316 µM
[26] = second compound 10 µM, first compound 0.1 µM
[27] = second compound 10 µM, first compound 0.316 µM
[28] = second compound 10 µM, first compound 1 µM
[29] = second compound 10 µM, first compound 3.16 µM
[30] = second compound 10 µM, first compound 10 µM
[31] = second compound 0.1 µM, first compound 0.000316 µM
[32] = second compound 0.1 µM, first compound 0.001 µM
[33] = second compound 0.1 µM, first compound 0.00316 µM
[34] = second compound 0.1 µM, first compound 0.01 µM
[35] = second compound 0.316 µM, first compound 0.000316 µM
[36] = second compound 0.316 µM, first compound 0.001 µM
[37] = second compound 0.316 µM, first compound 0.00316 µM
[38] = second compound 0.316 µM, first compound 0.01 µM
[39] = second compound 1 µM, first compound 0.000316 µM
[40] = second compound 1 µM, first compound 0.001 µM
[41] = second compound 1 µM, first compound 0.00316 µM
[42] = second compound 1 µM, first compound 0.01 µM
[43] = second compound 3.16 µM, first compound 0.000316 µM
[44] = second compound 3.16 µM, first compound 0.001 µM
[45] = second compound 3.16 µM, first compound 0.00316 µM
[46] = second compound 3.16 µM, first compound 0.01 µM
[47] = second compound 10 µM, first compound 0.000316 µM
[48] = second compound 10 µM, first compound 0.001 µM
[49] = second compound 10 µM, first compound 0.00316 µM
[50] = second compound 10 µM, first compound 0.01 µM
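Note: drug exposure lasted seven days after spheroids formed for three days.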
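Throughout, for viability, T/C: 100% = DMSO vehicle control viability.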

CC(C)NCC(C(=O)N1CCN(c2ncnc3c2C(C)CC3O)CC1)c1ccc(Cl)cc1 (stereo not given) + CNCc1ccccc1-c1csc(C(C)Nc2nc(C)nc3cc(OC)c(OC)cc23)c1
IC50 (second compound 0.1 µM): > 10 µM | IC50 (second compound 0.316 µM): > 10 µM | IC50 (second compound 1 µM): 0.675 µM | IC50 (second compound 3.16 µM): < 0.0316 µM | IC50 (second compound 10 µM): < 0.0316 µM | viability, T/C [1]: 78.9% | viability, T/C [2]: 72.3% | viability, T/C [3]: 53% | viability, T/C [4]: 62% | viability, T/C [5]: 70.9% | viability, T/C [6]: 61.6% | viability, T/C [7]: 68.2% | viability, T/C [8]: 54.6% | viability, T/C [9]: 46.7% | viability, T/C [10]: 54.5% | viability, T/C [11]: 59.1% | viability, T/C [12]: 54.6% | viability, T/C [13]: 60.4% | viability, T/C [14]: 63.5% | viability, T/C [15]: 52.3% | viability, T/C [16]: 42.8% | viability, T/C [17]: 48.3% | viability, T/C [18]: 42.2% | viability, T/C [19]: 0.25% | viability, T/C [20]: 0.18% | viability, T/C [21]: 0.11% | viability, T/C [22]: 1.4% | viability, T/C [23]: 0.12% | viability, T/C [24]: 0.97% | viability, T/C [25]: 0.84% | viability, T/C [26]: 0.44% | viability, T/C [27]: 0.13% | viability, T/C [28]: 0.12% | viability, T/C [29]: 2.26% | viability, T/C [30]: 0.6%

CC(C)n1nc(-c2ccc3oc(N)nc3c2)c2c(N)ncnc21 + CNCc1ccccc1-c1csc(C(C)Nc2nc(C)nc3cc(OC)c(OC)cc23)c1
IC50 (second compound 0.1 µM): 0.0587 µM | IC50 (second compound 0.316 µM): 0.0107 µM | IC50 (second compound 1 µM): 0.0057 µM | IC50 (second compound 3.16 µM): < 0.000316 µM | IC50 (second compound 10 µM): < 0.000316 µM | viability, T/C [31]: 72.7% | viability, T/C [32]: 76.2% | viability, T/C [33]: 65.5% | viability, T/C [34]: 58.6% | viability, T/C [1]: 53.8% | viability, T/C [2]: 47.3% | viability, T/C [35]: 70.3% | viability, T/C [36]: 65.5% | viability, T/C [37]: 59% | viability, T/C [38]: 49% | viability, T/C [7]: 42.6% | viability, T/C [8]: 37.4% | viability, T/C [39]: 70.8% | viability, T/C [40]: 73.6% | viability, T/C [41]: 52.5% | viability, T/C [42]: 44.5% | viability, T/C [13]: 32.1% | viability, T/C [14]: 23.2% | viability, T/C [43]: 0.52% | viability, T/C [44]: 1.53% | viability, T/C [45]: 2.23% | viability, T/C [46]: 0.27% | viability, T/C [19]: 10.3% | viability, T/C [20]: 6% | viability, T/C [47]: 1.29% | viability, T/C [48]: 0.51% | viability, T/C [49]: 0.14% | viability, T/C [50]: 1.07% | viability, T/C [25]: 10.9% | viability, T/C [26]: 0.33%

CC1(C)CCC(CN2CCN(c3ccc(C(=O)NS(=O)(=O)c4ccc(NCC5CCOCC5)c([N+](=O)[O-])c4)c(Oc4cnc5[nH]ccc5c4)c3)CC2)=C(c2ccc(Cl)cc2)C1 + CNCc1ccccc1-c1csc(C(C)Nc2nc(C)nc3cc(OC)c(OC)cc23)c1
IC50 (second compound 0.1 µM): 1.63 µM | IC50 (second compound 0.316 µM): 1.47 µM | IC50 (second compound 1 µM): 1.42 µM | IC50 (second compound 3.16 µM): < 0.0316 µM | IC50 (second compound 10 µM): < 0.0316 µM | viability, T/C [1]: 72.6% | viability, T/C [2]: 68.1% | viability, T/C [3]: 70.6% | viability, T/C [4]: 71.3% | viability, T/C [5]: 22% | viability, T/C [6]: 10.7% | viability, T/C [7]: 69.5% | viability, T/C [8]: 63.9% | viability, T/C [9]: 61.2% | viability, T/C [10]: 70.2% | viability, T/C [11]: 17.9% | viability, T/C [12]: 8.6% | viability, T/C [13]: 69.4% | viability, T/C [14]: 77.7% | viability, T/C [15]: 62% | viability, T/C [16]: 64.3% | viability, T/C [17]: 18.3% | viability, T/C [18]: 2.9% | viability, T/C [19]: 0.33% | viability, T/C [20]: 0.44% | viability, T/C [21]: 0.44% | viability, T/C [22]: 2.14% | viability, T/C [23]: 1.73% | viability, T/C [24]: 0.34% | viability, T/C [25]: 0.43% | viability, T/C [26]: 0.89% | viability, T/C [27]: 0.6% | viability, T/C [28]: 0.39% | viability, T/C [29]: 2.18% | viability, T/C [30]: 0.44%

COc1cc2nccc(Oc3ccc(NC(=O)C4(C(=O)Nc5ccc(F)cc5)CC4)cc3)c2cc1OC + CNCc1ccccc1-c1csc(C(C)Nc2nc(C)nc3cc(OC)c(OC)cc23)c1
IC50 (second compound 0.1 µM): > 10 µM | IC50 (second compound 0.316 µM): 0.541 µM | IC50 (second compound 1 µM): 0.197 µM | IC50 (second compound 3.16 µM): < 0.0316 µM | IC50 (second compound 10 µM): < 0.0316 µM | viability, T/C [1]: 78.2% | viability, T/C [2]: 66.5% | viability, T/C [3]: 56.8% | viability, T/C [4]: 49.6% | viability, T/C [5]: 33.1% | viability, T/C [6]: 88.5% | viability, T/C [7]: 65.8% | viability, T/C [8]: 58.8% | viability, T/C [9]: 51.8% | viability, T/C [10]: 39.6% | viability, T/C [11]: 27.2% | viability, T/C [12]: 75.7% | viability, T/C [13]: 55% | viability, T/C [14]: 58.2% | viability, T/C [15]: 45.4% | viability, T/C [16]: 27.8% | viability, T/C [17]: 23.1% | viability, T/C [18]: 38% | viability, T/C [19]: 0.31% | viability, T/C [20]: 0.25% | viability, T/C [21]: 0.87% | viability, T/C [22]: 0.11% | viability, T/C [23]: 0.21% | viability, T/C [24]: 0.7% | viability, T/C [25]: 0.63% | viability, T/C [26]: 0.38% | viability, T/C [27]: 0.97% | viability, T/C [28]: 0.33% | viability, T/C [29]: 2.44% | viability, T/C [30]: 0.91%

Cn1ncnc1[C@H]1c2n[nH]c(=O)c3cc(F)cc(c23)N[C@@H]1c1ccc(F)cc1 + CNCc1ccccc1-c1csc(C(C)Nc2nc(C)nc3cc(OC)c(OC)cc23)c1
IC50 (second compound 0.1 µM): > 0.1 µM | IC50 (second compound 0.316 µM): > 0.1 µM | IC50 (second compound 1 µM): 0.0131 µM | IC50 (second compound 3.16 µM): < 0.000316 µM | IC50 (second compound 10 µM): < 0.000316 µM | viability, T/C [31]: 79.2% | viability, T/C [32]: 82% | viability, T/C [33]: 73.4% | viability, T/C [34]: 70% | viability, T/C [1]: 71.4% | viability, T/C [2]: 74.5% | viability, T/C [35]: 64.8% | viability, T/C [36]: 64.9% | viability, T/C [37]: 61.1% | viability, T/C [38]: 57.6% | viability, T/C [7]: 58% | viability, T/C [8]: 60.6% | viability, T/C [39]: 46.2% | viability, T/C [40]: 54.4% | viability, T/C [41]: 53.7% | viability, T/C [42]: 55.8% | viability, T/C [13]: 42.2% | viability, T/C [14]: 46.1% | viability, T/C [43]: 0.22% | viability, T/C [44]: 0.9% | viability, T/C [45]: 0.17% | viability, T/C [46]: 0.13% | viability, T/C [19]: 0.2% | viability, T/C [20]: 0.36% | viability, T/C [47]: 0.39% | viability, T/C [48]: 0.63% | viability, T/C [49]: 0.39% | viability, T/C [50]: 0.11% | viability, T/C [25]: 1.32% | viability, T/C [26]: 0.63%

From PubChem BioAssay AID1963856 (Molecular Pharmacology Branch, DTP, NCI, 2024)
